The text below walks through data of US12193465B2, “Materials and methods for extending shelf-life of foods” (JP Laboratories, Inc., priority 2021, dated 2025).

One assay has as its system fungus. As to the kind of experiment: Fungus growth on treated foods stored in closed containers at room temperature.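 As to Effectiveness on ginger: compared with untreated control ginger in closed containers.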 The note with it: for Spoilage Time - Sample: Fungus. From the text:
(§1) Most of the foods changed color or texture.
Glass jars and bottles were also used. The containers were snap-closed or with a lid.
(§2) These bags were sealed with a heat sealer.
(§3) The assembly was shaken periodically.

Assay [1] can be described thus: Curdling / cream / solidification of milk.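 As to Curdling of milk: compared with untreated control milk in closed containers.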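 As to Curdling: compared with untreated control milk in closed containers.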 The note with it: for Curdling of milk: pasteurized whole and fat-free milk.
From the text: as §1

Assay [2] has as its system grains, legumes, potatoes, garlic. The assay can be described thus: Germination / sprouting of grains, legumes and tubers. The note with it: potatoes.
From the text: as §2, §3

The structures appear in SMILES notation.

`OB(O)c1cccc(Cl)c1` [3-chlorophenylboronic acid, 3-Chlorophenylboronic acid]: the “Effectiveness in extending freshness of cold press fresh juices” value (“Effectiveness in extending freshness” below) in the assay with fungus is “effective”. For the same compound, the “Shelf-life of raw milk yogurt” value with fungus (raw milk yogurt) is “extended shelf-life”. In addition, the Curdling entry in assay [1] (Example 135, fat-free milk) is “either prevented or significantly delayed”; in assay [1] (raw cow milk and raw goat milk), “delayed curdling”. In assay [1] (Pasteurized fat free milk, 0.05 g, control 3 days), the “Spoilage Time - Sample (Solid)” value stood at 14 days. Besides, in assay [1], the Curdling of milk entry was “delayed curdling”.
Take `COc1cccc(B(O)O)c1` [3-methoxyphenylboronic acid, 3-Methoxyphenylboronic acid]: the Fungus growth in the assay on fungus (96 h) is more than 27 days. Also, in the assay on fungus (Orange juice with peel, 0.02 g, control 4 days), the “Spoilage Time - Sample (Fungus)” value was determined as 27 days. For the same compound, the Curdling of milk result in assay [1] was “delayed curdling”. In addition, in assay [1] (raw cow milk and raw goat milk), the Curdling entry was “delayed curdling”.
On to `COC(=O)c1ccc(B(O)O)cc1` [4-(methoxycarbonyl)phenylboronic acid], for which, in the assay with fungus, the “Effectiveness in extending freshness” value was “effective”. Moreover, the Curdling of milk result in assay [1] is recorded as “delayed curdling”. Further, the Curdling result in assay [1] (raw cow milk and raw goat milk) is recorded as “delayed curdling”.
As for `OB(O)c1ccc(-c2ccccc2)cc1` [4-biphenylboronic acid], the “Effectiveness in extending freshness” value in the assay with fungus was “effective”. Besides, the Curdling of milk entry in assay [1] is “delayed curdling”. Besides, the Curdling entry in assay [1] (raw cow milk and raw goat milk) is recorded as “delayed curdling”.
On to `OB(O)c1ccc(Br)cc1` [4-bromophenylboronic acid, 4-Bromophenylboronic acid], for which the Fungus growth with fungus (Example 134, raw milk yogurt, preservative added, control 3 days) is more than 5 days. Further, in the assay on fungus (Raw milk yogurt, 0.10 g, control 3 days), the “Spoilage Time - Sample (Fungus)” value was determined as 5 days. Also, the “Effectiveness in extending freshness” value in the assay with fungus is on record as “effective”. Also, the Curdling of milk result in assay [1] was “delayed curdling”. Also, the Curdling result in assay [1] (raw cow milk and raw goat milk) is “delayed curdling”.
Consider `CC(C)(C)c1ccc(B(O)O)cc1` [4-tert-butylphenylboronic acid, 4-tert-Butylphenylboronic acid], for which the “Shelf-life of tomato juice” value in the assay on fungus (Example 133, fresh cold pressed tomato juice) is recorded as “improve shelf-life”. Further, in the assay with fungus (Tomato juice, 0.20 g, control 4 days), the “Spoilage Time - Sample (Fungus)” value was determined as 27 days. Also, the “Shelf-life of raw milk yogurt” value with fungus (raw milk yogurt) is on record as “extended shelf-life”. Further, the Curdling of milk result in assay [1] is on record as “delayed curdling”. For the same compound, the Curdling result in assay [1] (raw cow milk and raw goat milk) is “delayed curdling”.
With `CCN=C=S` [EI, ethyl isothiocyanate], the “Spoilage Time - Sample” value with fungus (Example 85, Tomato juice, 0.02 g, control 4 days) is given as 27 days; in the assay on fungus (Example 85, Tomato juice, 0.02 g, control 4 days, listed as Ethyl isothiocyanate) it was “improve shelf-life”; in assay [1] (Example 84, Cream, Raw cow milk, 0.07 g, control 3 days), 24 days; in assay [1] (Example 86, Solid, Pasteurized whole milk, 0.05 g, control 3 days), 14 days; in assay [1] (Example 86, Solid, Pasteurized whole milk, 0.05 g, control 3 days, listed as ethyl isothiocyanate), “either prevented or significantly delayed”. Also, in the assay on fungus (ginger, pre-exposure and sachet method), the Effectiveness on ginger entry is recorded as “found effective”. The “Shelf-life of raw milk yogurt” value with fungus (raw milk yogurt) is recorded as “extended shelf-life”. In addition, in assay [2], the “Effectiveness at extending the shelf-life of potatoes” value (from here on “Effectiveness … of potatoes”) is reported as “effective”.
In the case of `S=C=Nc1ccccc1` [PI, phenyl isothiocyanate], the “Spoilage Time - Sample” value turned out to be 48 days with fungus (Example 87, White pearl onions, Sachet, 100% relative humidity, control 8 days) and 48 days in the assay with fungus (Example 88, Yellow pearl onions, Sachet, 100% relative humidity, control 24 days). The “Effectiveness in extending freshness” value in the assay with fungus is “effective”. For the same compound, the “Effectiveness … of potatoes” value in assay [2] is reported as “effective”. Further, the Curdling entry in assay [1] (raw cow milk and raw goat milk) is listed as “delayed curdling”.
On to `N.N.N.O=P(O)(O)O` [ammonium phosphate], for which the “Effectiveness … of potatoes” value in assay [2] was “effective”.
As for `CCCCN=C=S` [butyl isothiocyanate], the “Effectiveness in extending freshness” value in the assay with fungus is “effective”. Moreover, the Curdling entry in assay [1] (raw cow milk and raw goat milk) is given as “delayed curdling”.
Take `CCCCB(O)O` [butylboronic acid]: the “Effectiveness in extending freshness” value with fungus was “effective”. The “Shelf-life of raw milk yogurt” value with fungus (raw milk yogurt) is reported as “extended shelf-life”. The Curdling of milk result in assay [1] was “delayed curdling”. Also, the Curdling entry in assay [1] (raw cow milk and raw goat milk) is “delayed curdling”.
